# In patent publication US12383566B2, “Inhibition of SLC transporter activity or expression to attenuate anthracycline-induced cardiotoxicity” (Northwestern University, priority 2021, dated 2025):
# Assays:
# hiPSC-CMs [1] = assay: Prestwick drug library screening for cardioprotection against DOX (10 μM, 72 h) by cell viability; type: cell-based, human; conditions: drug 3 μM (24 h pre-treatment + co-treatment)
# Protocol: (§1) FIGS. 5A, 5B, 5C, 5D, 5E, 5F, and 5G. […] All drugs were used at 3 μM. […] LD50, median lethal dose. […] F, Ventricular fractional shortening at baseline, 1-, 2-, 3-weeks post treatment. […] For (D and G) log-logistic non-linear regression model was used to estimate the value of the four parameters, and t-statistic was used to test for significant difference in LD50 between different groups.
# (§2) Next, we sought to expand our screening for novel cardioprotectants by testing the cardioprotective role of the Prestwick drug library that includes 1219 drugs.
# (§3) 384-well plate-based cell viability, caspase 3/7 activity assays. […] Luminescence was measured using a VarioSkan Lux Multi-Mode Reader (Thermo Scientific) with an integration time of 0.25 sec. Apoptosis was measured using Caspase 3/7-Glo (Promega) respectively according to manufacturer's instructions with an integration time of 1 sec. 10 μM staurosporine (MedChemExpress) was used as a positive control. Data were analyzed using Prism 7.0 software (GraphPad) using standard dose-response guidelines.
# hiPSC-CMs [2] = assay: Validation of top FDA-approved cardioprotectants against 10 log-doses of doxorubicin (viability LD50); type: cell-based, human; conditions: drug 3 μM, 72 h
# Protocol: as §1, §2, §3
Structure (SMILES),rank among cardioprotective drugs in Prestwick library screening (hiPSC-CMs [1]),LD50 of doxorubicin with cardioprotective drug co-treatment (hiPSC-CMs [2])
"Clc1ccc(CCC(Cn2ccnc2)Sc2c(Cl)cccc2Cl)cc1 (centres unmarked) [butoconazole, 1-[4-(4-chlorophenyl)-2-(2,6-dichlorophenyl)sulfanylbutyl]imidazole]",top ten significant cardio-protectants,4.4 µM
CNCCC(Oc1ccc(C(F)(F)F)cc1)c1ccccc1 (centres unmarked) [fluoxetine],top ten significant cardio-protectants,
O=C1[C@H]2CCCC[C@H]2C(=O)N1CCCCN1CCN(c2nsc3ccccc23)CC1 [perospirone],top ten significant cardio-protectants,
"CC(C)c1cccc(C(C)C)c1O [propofol, 2,6-di(propan-2-yl)phenol]",top ten significant cardio-protectants,4.77 µM
"CCCCNc1ccc(C(=O)OCCN(C)C)cc1 [tetracaine, 2-(dimethylamino)ethyl 4-(butylamino)benzoate]",top ten significant cardio-protectants,4.65 µM
